In PMC9256669, “Monomethyl auristatin antibody and peptide drug conjugates for trimodal cancer chemo-radio-immunotherapy” (Nature Communications, 2022):
Values joined by “and” are separate entries in the source; they are usually repeats but may differ in a detail not shown here. Equal values may be shown once. Read-outs that look alike come from different tables or passages of the source. Non-standard residues stand in square brackets, D forms with d. Residues, ends and D or L forms follow the SMILES beside them. *: point of attachment. Dolaproine = CO[C@@H]([C@@H]1CCCN1)[C@@H](C)C(=O)O; Dil = CC[C@H](C)[C@H](NC)[C@@H](CC(=O)O)OC; X1 = C[C@@H](N*)[C@@H](O)c1ccccc1; NMeV = CN[C@H](C(=O)O)C(C)C

Columns and labels:
[1] = system: B16 tumors
Text: (§1) LL/2 cells treated with dose range of MMAE overnight and then […] in drug free media for 7-10 days to allow for visualized colonies to form.
(§2) Statistical significances calculated using one-way ANOVA with Tukey’s multiple comparisons test. 0.9 b) Cell cycle analysis […]
(§3) of MMAE treated LL/2 cells, mean ± SD, n=2. […]
(§4) experiments. c) Clonogenic survival of LL/2 cells treated with MMAE and 2 Gy (SF2). Cell Days viability normalized to non-irradiated cells for each drug condition and plotted as mean fractional survival ± SEM, n=6. Statistical significances calculated using one-way ANOVA with Sidak’s multiple comparisons test. d) Tumor volumes (n=10) and mouse body weights (n=5) of mice from experiments in Fig. 3e. Tumor volumes plotted as mean volume of surviving mice ± SEM.
(§5) Mouse body weight were normalized to each mouse’s weight on day 0, i.e. tumor implantation.
(§6) Data plotted as mean fractional body weight ± SEM. e) Mouse body weights of mice (n=5) from experiments in Fig. 4h were normalized to each mouse’s weight on day of tumor implantation.
(§7) Data is plotted as individual normalized body weights. f) Mouse body weights of mice from experiments in Fig. 5e, f were normalized to each mouse’s weight on day of tumor implantation.
(§8) Source data are provided in Source Data file.

[2] = system: LL/2 tumors; conditions: for Mouse survival, status: individual mice, status at the day, Figure 3e
Text: as §1, §2, §3, §4, §5, §6, §7, §8

[3] = system: MC38 tumors
Text: as §1, §2, §3, §4, §5, §6, §7, §8

[4] = system: 4NQO-induced tongue tumors; conditions: 10 nmoles ACPP-MMAE x 2 doses + whole tongue IR 5 Gy x 2 at week 20; tongues at week 22; vs untreated control
Procedure: 4-Nitroquinoline N-oxide (4NQO, Sigma Aldrich-N8141) was dissolved in propylene glycol as a stock solution (4 mg/ml) and further diluted in drinking water to a final concentration of 50 μg/ml. […] Since the entire tongue was exposed to 4NQO, the whole tongue was delineated and given 5 Gy × 2 using PXI SmART irradiator with 225 kVp X-ray tube. IR was delivered as 2 parallel opposed fields. All mice were given a full oral cavity examination biweekly, and any observed pathological changes were documented. On week 22, animals were euthanized, and tissues and oral pharynx were fixed in PAXgene tissue FIX (Qiagen) at room temperature for 12 h. Tissues were then transferred to 70% ethanol and paraffin embedded. Tongue sections were H&E stained and histopathologically assessed for the number and size of carcinoma lesions per tongue by a qualified Pathologist (A.A.M.) who was blinded manner to treatment of each slide.

[5] = system: B16 cells; experiment: Cell cycle analysis; type: cell-based, murine; conditions: for G2/M fraction: Figure 3c, single replicates
Procedure: Cells were MMAE treated for 24 h, fixed in 70% ethanol, stained with FxCyclePI/RNase solution (Life Technologies), and then analyzed by FACS using FlowJo software.

[6] = system: CAL27 WT and CAL27 PIK3CA H1047R cells; experiment: Cell culture MMAE sensitivity of isogenic cell lines; type: cell-based, human; conditions: CAL27 WT vs CAL27 PIK3CA H1047R
Text: Specific Comment 3: “Line 266: fig 3e: the **** significance; is this IR+MMAE vs IR, or vs MMAE? Please […]
Response: Reviewer #2 raised a similar comment, (Rev #2, Comment 5). As mentioned, the statistical analysis in our original submission compared all 4 experimental groups. Based on Reviewers #2 & #4 […]
Importantly for scientific rigor & reproducibility , we would highlight that MMAE ± IR tumor response studies in syngeneic mice were replicated […]
Specific Comment 4: “Experiments with RAG mice showing that CD8+ T-cells are involved in the response to MMAE+IR are intriguing. A mechanistic explanation is however lacking. If T-cells are crucial for tumor control under IR, why is there such good response in CAL27 xenografts in nude mice with monotherapy only?” […]
adaptive immunity on durable tumor control of syngeneic tumors treated with MMAE + IR. Using depleting […]
mediated durable tumor control of MMAE radiosensitization . […]
Response: In cell culture testing, MOC1 and MOC2 cells were sensitive to MMAE and CDX3379-MMAE as measured by Alamar Blue assay. For Alamar Blue assay cytotoxicity, we measured cell viability at 72 hr of […]

[7] = 10 nmoles ACPP-MMAE x 2 doses + IR 5 Gy/day x 3
[8] = 10 nmoles ACPP-MMAE x 2 doses, no IR
[9] = ACPP-MMAE alone, individual mice, status at the day, Figure 3e

Molecule | survival and tumor control, + IR [1, 7] | anti-tumor efficacy, monotherapy [1, 8] | Mouse survival, status [1, 9] | survival and tumor control, + IR [2, 7] | anti-tumor efficacy, monotherapy [2, 8] | Mouse survival, status ([2]; ACPP-MMAE + IR) | Mouse survival, status ([2]; ACPP-MMAE alone) | survival and tumor control, + IR ([3]; 10 nmoles ACPP-MMAE x 2 doses + IR 3 Gy/day x 3) | anti-tumor efficacy, monotherapy [3, 8] | Mouse survival, status [3, 9] | total tumor burden [4] | G2/M fraction ([5]; MMAE 1 nM) | G2/M fraction ([5]; MMAE 2 nM) | G2/M fraction ([5]; MMAE 5 nM) | G2/M fraction ([5]; MMAE 10 nM) | cell cycle effect ([5]; MMAE-treated cells) | MMAE sensitivity of isogenic cell lines [6]
cyclo(RGD)fc-MC-HN-peg8-e9-oPLGC(Me)AG-r9-c-(MC-VC-PABC-MMAE)-CONH2 [ACPP-MMAE] | long-term survival and tumor control | lacked significant anti-tumor efficacy | 1 | modestly prolonged mouse survival and tumor control | lacked significant anti-tumor efficacy | 1 | 1 | long-term survival and tumor control | lacked significant anti-tumor efficacy | 1 | significantly decreased total tumor burden | – | – | – | – | – | –
CC[C@H](C)[C@@H]([C@@H](CC(=O)N1CCC[C@H]1[C@H](OC)[C@@H](C)C(=O)N[C@H](C)[C@@H](O)c1ccccc1)OC)N(C)C(=O)[C@@H](NC(=O)[C@@H](NC)C(C)C)C(C)C [MMAE, monomethyl auristatin E] (H-[NMeV]V[Dil][Dolaproine]-X1) | – | – | – | – | – | – | – | – | – | – | – | 0.13 and 0.12 | 0.12 and 0.14 | 0.23 and 0.25 | 0.73 and 0.76 | arresting cells in the radiosensitive mitotic phase of the cell cycle | did not see an appreciable difference in MMAE sensitivity between the isogenic cell lines
